Source: patent US10598672B2, “Methods and compositions for diagnosing and treating loss and/or distortion of taste or smell” (Cyrano Therapeutics, Inc., priority 2014, dated 2020)

What was measured:
patients with hyposmia = conditions: previous open-label controlled clinical trial, 312 patients with hyposmia and hypogeusia, oral; cited from earlier work
[1] = tested on: patients with hyposmia and hypogeusia; assay: Open-label pilot study oral vs intranasal theophylline: subjective smell and taste function by questionnaire (0-100); format: in vivo, human
Description: We performed an open-label pilot study in patients with hyposmia and hypogeusia under the following 3 conditions: (1) before treatment, (2) after oral theophylline treatment, and (3) after intranasal theophylline treatment. Under each condition, we performed subjective evaluations of taste or smell functions, quantitative measurements of taste (gustometry) and smell (olfactometry), and measurements of serum theophylline level and body weight.
Subjective changes in smell and taste function under each study condition were measured by questionnaire before measurements of smell or taste function. Responses were graded on a scale from 0 to 100, with 0 reflecting no subjective response in overall sensory function; 100, return to normal sensory function; and values between 0 and 100 intermediate responses. Overall sensory function was defined as the ability to smell all odors and identify all tastants, although response intensity varied.
The 10 patients in this intranasal pilot study entered into the previous oral theophylline study according to a protocol approved by the institutional review board of the Georgetown University Medical Center. In this prior trial, oral theophylline was administered daily in 2 divided doses (at breakfast and lunch) of 200, 400, 600, or 800 mg for 2 to 12 months of treatment. Treatment was divided into 2- to 4-month periods, at which time patients returned to The Clinic for measurements of subjective sensory responses, olfactometry, gustometry, serum theophylline level, and body weight. […] In the 10 patients selected for the intranasal pilot study, oral theophylline treatment was discontinued 3 weeks to 4 months before initiation of the intranasal drug trial. At that time, the mean (SEM) serum theophylline level was unmeasurable in any patient (0 [0] mg/L).
A pilot study of intranasal theophylline treatment was then initiated among these 10 patients. This trial was an investigator initiated phase 1, open-label, single-source, controlled pilot study. Intranasal drug therapy reflected a compassionate trial of a potentially more useful therapeutic method to improve hyposmia (and hypogeusia) than oral theophylline. Before the intranasal trial, risks and benefits were explained and the patients signed an informed consent.
The intranasal administration device was a calibrated 1 mL syringe fitted with a nozzle that fit comfortably into the anterior naris (Wolfe Tory Medical, Inc.) and loaded under sterile conditions with 20 μg of theophylline methylpropyl paraben in a 0.4-mL saline solution (Foundation Care). Patients were instructed to direct the spray superiorly into the nasal cavity but not posteriorly into the nasopharynx. This technique was practiced before study initiation with sterile saline.
Each patient delivered the theophylline dose in each naris once daily throughout the study. Patients underwent evaluation 1, 2, and 4 weeks during drug use with the same measurements used for the oral study.
Values for the oral trial were taken from the last measurements made before discontinuation of oral drug treatment and before initiation of the intranasal trial. This period varied from 2 to 12 months after oral treatment initiation and reflected the maximal improvement in sensory function each patient experienced. Values for the intranasal pilot study were taken from measurements obtained after completion of 4 weeks of intranasal treatment.
The mean and standard error of the mean for all values obtained at each study condition were compared. Differences were considered significant if P<0.05 by the unpaired t test. Paired comparison tests were also used with differences considered significant if P<0.05 by the t test.

[2] = tested on: patients with taste dysfunction; assay: Gustometry: DT, RT, ME (and HR) for NaCl, sucrose, HCl, urea; format: in vivo, human
Experimental: Smell and taste functions under each study condition were measured by standardized psychophysical sensory testing techniques. Measurements included determination of detection thresholds (DTs), recognition thresholds (RTs), magnitude estimation (ME), and hedonic response (HR) for 4 odors (i.e., pyridine [dead fish], nitrobenzene [bitter almond], thiophene [petroleum], and amyl acetate [banana oil]) (olfactometry) and for 4 tastants (i.e., sodium chloride [salt], sucrose [sweet], hydrochloride [sour], and urea [bitter]) (gustometry). These techniques have been previously described with olfactometry confirmed in a prior controlled double-blind clinical trial. Each measurement was performed independent of any prior knowledge of response.
Gustometry measurements included measurements of detection (DT) and recognition (RT) thresholds and magnitude estimation (ME) for four tastants [NaCl (salt), sucrose (sweet), HCl (sour) and urea (bitter)]. Abnormalities of taste function were measured by increased DT or RT above normal (decreased sensitivity) and/or decreased ME (decreased sensitivity) for one or more of the tastants presented.

[3] = after discontinuation of intranasal treatment
[4] = TH[…] (81) patients with taste dysfunction, Mean ± SEM
[5] = after intranasal treatment vs before treatment or after oral treatment
[6] = after oral treatment vs before treatment

## Cn1c(=O)c2[nH]cnc2n(C)c1=O [theophylline]
Patients with hyposmia
  patients in whom hyposmia was successfully corrected: more than 50%
[1]; [3]
  patients reporting some persistence of improvement after 10 weeks: Four
  patients with loss of smell and taste function after 6 weeks: 2 patients
  patients with loss of smell and taste function within 1 week of discontinuation: 2 patients
[1]; intranasal treatment
  earliest improvement measured after starting treatment: 1 week
[1]; intranasal, 4 weeks, subjective
  improvement measured for taste or smell functions compared with oral treatment: 2 fold
[1]; of 10 patients, intranasal treatment
  patients who reported no improvement: 2 patients
[1]; of 10 patients, intranasal, 20 μg in each naris once daily, 4 weeks
  patients with improved taste or smell acuity / overall improvement in taste or smell functions: 8 patients
[1]; of 10 patients, oral treatment
  patients who reported no improvement: 4 patients
[1]; of 10 patients, oral, 200 to 800 mg/d for 2 to 12 months
  patients with improved taste or smell acuity / overall increased taste or smell function: 6 patients
[1]; oral treatment
  earliest improvement of hyposmia measured after: 2 months
[2]; [4]
  NaCl DT, Detection Threshold: 3.4 ± 0.2^
  NaCl ME, Magnitude Estimation: 58 ± 5
  NaCl RT, Recognition Threshold: 3.6 ± 0.2
  SCl DT, Detection Threshold: 3.6 ± 0.2
  SCl ME, Magnitude Estimation: 54 ± 5
  SCl RT, Recognition Threshold: 3.7 ± 0.3
  SUCROSE DT, Detection Threshold: 3.3 ± 0.2
  SUCROSE ME, Magnitude Estimation: 49 ± 5
  SUCROSE RT, Recognition Threshold: 3.6 ± 0.2
  UREA DT, Detection Threshold: 3.9 ± 0.3
  UREA ME, Magnitude Estimation: 54 ± 5
  UREA RT, Recognition Threshold: 3.9 ± 0.3
[2]; [5]
  DTs and RTs for all tastants: lower (more sensitive)
  HRs for sucrose: more positive (more pleasant)
  Hedonic responses for sodium chloride, hydrochloride, and urea: more negative (more unpleasant)
  Magnitude estimations for all tastants: higher (more intense)
[2]; [6]
  DTs for sucrose and hydrochloride and RTs for sodium chloride, hydrochloride, and urea: decreased (more sensitive)
  HR for hydrochloride and urea: increased (more unpleasant)
  Magnitude estimations for all tastants: increased (more sensitive)
[2]; patients with taste dysfunction, oral treatment
  gustometric functions: improving gustometric functions
